We go through 36 molecules from patent US4654362A, “Derivatives of 2,2'-iminobisethanol” (Janssen Pharmaceutica, N.V., priority 1984, dated 1987).

The target of test [1] is T1, guinea pig trachea (β2) (Cavia porcellus, UniProt Q8K4Z4).
T1 construct: The trachea was dissected from guinea-pigs; from tissue; host or cells: guinea-pig tracheal rings (tracheal smooth muscle)
As to the kind of experiment: Guinea-pig tracheal ring test: inhibition of isoprenaline-induced relaxation (β2-adrenergic receptor blocking activity, in vitro). The note with it: for β2 /β1: ratio of ED50 trachea (β2) to ED50 right atrium (β1), index of cardioselectivity; for IC50: tracheal ring, methacholine 1 μg/ml, isoprenaline 0.08 μg/ml, 30 min, 35° C., probit analysis, read-out: ED50 value on guinea pig trachea (β2) (converted). An excerpt: 2. Guinea-pig tracheal ring (β2)
The trachea was dissected from guinea-pigs (400±50 g). Four rings, approximately 8 mm. in width, were then cut from each trachea. Cartilaginous parts of the tracheal ring were mounted horizontally between two metal rods, one of which was attached to a glass organholder, the other rod being connected to a Grass isometric transducer. Using such a technique the tracheal smooth muscle is suspended optimally i.e. midway between the cartilaginous parts. […] The preparation was maintained at tension of 1.5 g throughout the experiment. Tension changes recorded were thus an expression of contraction or relaxation. After a stabilisation period of 30 min. contraction was induced by adding methacholine (1 μg/ml) to the bath for a 10 min. period. […] This procedure was repeated twice before adding the drug (t-33'; t-19') and once 30 min. after addition of the drug. During the incubation period any direct effects of the drug were measured.
The ratio of the ED50 -values obtained in respectively the tracheal ring test (β2) and in the right atrium test (β1) may be considered as an index of the cardioselectivity of the test drug.

Test [2] concerns the target T2, guinea pig atrium (β1) (Cavia porcellus, UniProt H0W3H1).
T2 construct: Spontaneously beating right atria were dissected from guinea-pigs; from tissue; host or cells: guinea-pig right atrium (strip including the sinoatrial node)
In words: Guinea-pig right atrium test: inhibition of isoprenaline-induced increase in heart rate (β1-adrenergic receptor blocking activity, in vitro). The note with it: isolated right atrium, 30 min incubation, 37.5° C., estimated graphically, read-out: ED50 value on guinea pig atrium (β1) (converted). As for the experimental part: 1. Guinea-pig right atrium (β1)
Spontaneously beating right atria were dissected from guinea-pigs (400±50 g). A triangular strip of atrium, including the sinoatrial node was excised together with the anterior vena cava.
The vena was fixed to a glass muscle holder and the opposite atrial muscle was connected to a Grass isometric transducer. […] Heart rate and contractile force were recorded by means of a Grass FT03C isometric transducer. Output signals amplified by an isometric transducer amplifier (J.S.I.) via a cardiotachometer (J.S.I.) were recorded on Honeywell XYY' recorder.
After washing out isoprenaline a stabilisation period of 15 min. was allowed. A drug was then added to the bath fluid for 30 min. During this incubation period possible direct chronotropic and inotropic effects of the drug were determined. Following this, a second dose-response curve for isoprenaline was produced by infusion during 10 minutes (b). The slope of the increase in rate was graphically estimated for each period of isoprenaline addition and the ratio b/a was calculated. Based on solvent experiments a ratio of less than 0.70 was considered as the criterion of inhibitory activity. ED50 -values were estimated graphically.

Molecules are shown by their SMILES.

T2 sequence (H0W3H1 1-470): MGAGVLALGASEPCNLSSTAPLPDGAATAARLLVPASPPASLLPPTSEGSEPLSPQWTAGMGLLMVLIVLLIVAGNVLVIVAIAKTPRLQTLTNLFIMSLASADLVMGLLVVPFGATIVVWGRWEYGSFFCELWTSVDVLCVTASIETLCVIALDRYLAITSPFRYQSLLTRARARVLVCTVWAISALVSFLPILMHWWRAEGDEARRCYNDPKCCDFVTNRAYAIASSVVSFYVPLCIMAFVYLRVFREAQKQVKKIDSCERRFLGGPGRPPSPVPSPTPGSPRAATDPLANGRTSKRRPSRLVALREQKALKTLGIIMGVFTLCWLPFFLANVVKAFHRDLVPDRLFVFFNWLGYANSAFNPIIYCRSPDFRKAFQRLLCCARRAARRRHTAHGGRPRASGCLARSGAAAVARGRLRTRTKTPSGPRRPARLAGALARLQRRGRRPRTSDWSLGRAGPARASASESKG
T1 sequence (Q8K4Z4 whole entry): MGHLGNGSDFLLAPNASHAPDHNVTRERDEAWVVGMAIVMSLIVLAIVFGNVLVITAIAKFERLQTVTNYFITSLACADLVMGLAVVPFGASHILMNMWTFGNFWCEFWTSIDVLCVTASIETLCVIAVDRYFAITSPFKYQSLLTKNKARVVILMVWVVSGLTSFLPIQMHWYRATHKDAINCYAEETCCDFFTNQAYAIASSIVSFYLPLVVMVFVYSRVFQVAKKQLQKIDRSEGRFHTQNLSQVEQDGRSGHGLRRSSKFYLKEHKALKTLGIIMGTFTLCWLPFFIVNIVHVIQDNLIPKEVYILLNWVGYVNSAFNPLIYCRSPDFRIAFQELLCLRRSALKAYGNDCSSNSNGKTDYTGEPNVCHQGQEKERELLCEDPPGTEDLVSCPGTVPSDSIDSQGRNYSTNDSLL

With `CC(=O)Nc1ccc2c(c1)CCC(C(O)CNCC(O)C1CCc3ccccc3O1)O2` (stereo not drawn) [Compound 95], in test [1], the “β2 /β1” value came to 129 and the IC50 is 93.8 nM. For the same molecule, the IC50 in test [2] is 0.727 nM.

As for `OC(CNCC(O)C1CCc2ccccc2O1)C1CCc2ccccc2O1` (stereo not drawn) [Compound 81], in test [1], the “β2 /β1” value is 3,938 and the IC50 was 1710 nM. For the same molecule, the IC50 in test [2] was 0.433 nM.

Regarding `Cc1ccc2c(c1)OC(C(O)CNCC(O)C1CCc3ccccc3O1)CC2` (stereo not drawn) [Compound 99], in test [1], the “β2 /β1” value is ≥ 15,873 and the IC50 is not below 26100 nM. In addition, in test [2], the IC50 was 1.64 nM.

On to `CC(O)(CNCC(O)C1CCc2ccccc2O1)C1CCc2ccccc2O1` (stereo not drawn) [Compound 92], for which, in test [1], the “β2 /β1” value was 12,500 and the IC50 was 13000 nM. In test [2], the IC50 was 1.04 nM.

Turning to `OC(CNCC(O)C1CCc2ccccc2O1)C1CCc2ccccc2O1` (stereo not drawn) [Compound 83], the “β2 /β1” value in test [1] was > 5,435. In addition, the IC50 in test [2] is 1.25 nM.

Take `CC(=O)Nc1ccc2c(c1)CCC(C(O)CNCC(O)C1CCc3ccccc3O1)O2` (stereo not drawn) [Compound 96]: in test [1], the “β2 /β1” value was determined as 108 and the IC50 was 328 nM. In addition, the IC50 in test [2] is 3.05 nM.

For `Cc1ccc2c(c1)CCC(C(O)CNCC(O)C1CCc3ccccc3O1)O2` (stereo not drawn) [Compound 93], in test [1], the “β2 /β1” value is recorded as 13,750 and the IC50 is 5740 nM. For the same molecule, the IC50 in test [2] is 0.417 nM.

Consider `Cc1cc(C)c2c(c1)OC(C(O)CNCC(O)C1CCc3ccccc3O1)CC2` (stereo not drawn) [Compound 103], for which, in test [1], the “β2 /β1” value was more than 4000 and the IC50 was more than 25200 nM. Also, in test [2], the IC50 was 6.29 nM.

Turning to `OC(CNCC(O)C1CCc2cc(F)ccc2O1)C1CCc2ccccc2O1` (stereo not drawn) [Compound 91], in test [1], the “β2 /β1” value is reported as 6,250 and the IC50 is 12900 nM. Also, the IC50 in test [2] is 2.06 nM.

Regarding `Cc1ccc2c(c1)CCC(C(O)CNCC(O)C1CCc3ccccc3O1)O2` (stereo not drawn) [Compound 89], in test [1], the “β2 /β1” value is recorded as 20,698 and the IC50 was 23200 nM. In addition, in test [2], the IC50 is 1.12 nM.

As for `OC(CNCC(O)C1CCc2ccccc2O1)C1CCc2ccccc2O1` (stereo not drawn) [Compound 75], in test [1], the “β2 /β1” value was 2,154 and the IC50 was 7580 nM. For the same molecule, the IC50 in test [2] was 3.52 nM.

Turning to `OC(CNCC(O)C1CCc2cc(Br)ccc2O1)C1CCc2ccccc2O1` (stereo not drawn) [Compound 63], in test [2], the IC50 was less than 89.2 nM.

As for `OC(CNCC(O)C1CCc2ccccc2O1)C1CCc2ccccc2O1` (stereo not drawn) [Compound 77], in test [1], the “β2 /β1” value is 4,074. Besides, the IC50 in test [2] is 1.46 nM.

For `Cc1ccc2c(c1)CCC(C(O)CNCC(O)C1CCc3cc(C)ccc3O1)O2` (stereo not drawn) [Compound 113], the IC50 in test [2] was 6.29 nM.

Turning to `Oc1ccc2c(c1)CCC(C(O)CNCC(O)C1CCc3cc(O)ccc3O1)O2` (stereo not drawn) [Compound 133], the IC50 in test [2] is 1.57 nM.

`CC(=O)Nc1ccc2c(c1)CCC(C(O)CNCC(O)C1CCc3ccccc3O1)O2` (stereo not drawn) [Compound 94]: the IC50 in test [2] was not below 5.86 nM.

For the molecule `OC(CNCC(O)C1CCc2ccc3c(c2O1)CCCC3)C1CCc2ccccc2O1` (stereo not drawn) [Compound 110], in test [2], the IC50 was 5.9 nM.

For `CC1(C(O)CNCC(O)C2CCc3ccccc3O2)CCc2ccccc2O1` (stereo not drawn) [Compound 140, (A,B)-α-[[[2-(3,4-dihydro-2H-1-benzopyran-2-yl)-2-hydroxyethyl]amino]methyl]-3,4-dihydro-2-methyl-2H-1-benzopyran-2-methanol ethanedioate (1:1). monohydrate], the IC50 in test [2] is not above 6.52 nM.

As for `N#Cc1ccc2c(c1)CCC(C(O)CNCC(O)C1CCc3ccccc3O1)O2` (stereo not drawn) [Compound 51], the “β2 /β1” value in test [1] was more than 252. Further, the IC50 in test [1] is more than 1600 nM; in test [2] it was 6.34 nM.

As for `CC(O)(CNCC(C)(O)C1CCc2ccccc2O1)C1CCc2ccccc2O1` (stereo not drawn) [Compound 86], the “β2 /β1” value in test [1] is reported as 4,166. Also, the IC50 in test [1] was 12600 nM; in test [2], 3.02 nM.

`OC(CNCC(O)C1CCc2cc(Br)ccc2O1)C1CCc2cc(Br)ccc2O1` (stereo not drawn) [Compound 10, (B,B)-α,α'-[iminobismethylene]bis[6-bromo-3,4-dihydro-2H-1-benzopyran-2-methanol]]: the IC50 in test [2] was 75.9 nM.

Turning to `OC(CNCC(O)C1CCc2ccccc2O1)C1CCc2ccccc2O1` (stereo not drawn) [Compound 82], in test [1], the “β2 /β1” value was > 1,000 and the IC50 was more than 6770 nM. The IC50 in test [2] is 6.77 nM.

With `OC(CNCC(O)C1CCc2cc(F)ccc2O1)C1CCc2cc(F)ccc2O1` (stereo not drawn) [Compound 84], the IC50 in test [1] is more than 24700 nM.

`OC(CNCC(O)C1CCc2ccccc2O1)C1CCc2ccccc2O1` (stereo not drawn) [Compound 88]: the IC50 in test [1] is not below 27100 nM.

Take `Cc1ccc2c(c1)OC(C(O)CNCC(O)C1CCc3ccccc3O1)CC2` (stereo not drawn) [Compound 98]: in test [1], the “β2 /β1” value is recorded as 2,400 and the IC50 was 15600 nM. In addition, the IC50 in test [2] was 6.52 nM.

In the case of `Oc1ccc2c(c1)CCC(C(O)CNCC(O)C1CCc3ccccc3O1)O2` (stereo not drawn) [Compound 130], in test [1], the “β2 /β1” value was 1000 and the IC50 was 804 nM. In test [2], the IC50 was 0.804 nM.

For `CS(=O)(=O)Nc1ccc2c(c1)CCC(C(O)CNCC(O)C1CCc3ccccc3O1)O2` (stereo not drawn) [Compound 135], the IC50 in test [2] was 136 nM.

With `OC(CNCC(O)C1CCc2ccccc2O1)C1CCc2ccccc2O1` (stereo not drawn) [Compound 79], in test [1], the “β2 /β1” value was 13,157 and the IC50 is 6770 nM. Also, in test [2], the IC50 is 0.514 nM.

In the case of `Cc1ccc2c(c1)CCC(C(O)CNCC(O)C1CCc3cc(C)ccc3O1)O2` (stereo not drawn) [Compound 85], in test [1], the “β2 /β1” value is listed as 5,652 and the IC50 is 3270 nM. Besides, in test [2], the IC50 is 0.579 nM.

As for `Cc1cc(C)c2c(c1)OC(C(O)CNCC(O)C1CCc3ccccc3O1)CC2` (stereo not drawn) [Compound 104], in test [1], the “β2 /β1” value is more than 1923 and the IC50 is more than 6290 nM. In test [2], the IC50 is 3.27 nM.

On to `Cc1cc(C)c2c(c1)OC(C(O)CNCC(O)C1CCc3ccccc3O1)CC2` (stereo not drawn) [Compound 106], for which the “β2 /β1” value in test [1] was more than 1000.

In the case of `OC(CNCC(O)C1CCc2ccccc2O1)C1CCc2ccccc2O1` (stereo not drawn) [Compound 138, (A,A)-α-[[[2-(3,4-dihydro-2H-1-benzopyran-2-yl)-2-hydroxyethyl]amino]methyl]-3,4-dihydro-2H-1-benzopyran-2-methanol ethanedioate (1:1)], the “β2 /β1” value in test [1] was more than 1000. Besides, the IC50 in test [1] is more than 27100 nM; in test [2] it was 27.1 nM.

Turning to `OC(CNCC(O)C1CCc2ccccc2O1)C1CCc2ccccc2O1` (stereo not drawn) [Compound 76], the “β2 /β1” value in test [1] is given as 2,614. Also, the IC50 in test [1] is 5950 nM; in test [2], 2.3 nM.

`Cc1ccc2c(c1)CCC(C(O)CNCC(O)C1CCc3ccccc3O1)O2` (stereo not drawn) [Compound 90]: in test [1], the “β2 /β1” value is recorded as ≥ 25,000. For the same molecule, the IC50 is not below 26100 nM in test [1] and 1.04 nM in test [2].

For `Cc1ccc2c(c1)OC(C(O)CNCC(O)C1CCc3ccccc3O1)CC2` (stereo not drawn) [Compound 97], in test [1], the “β2 /β1” value is on record as 7,042 and the IC50 was 13000 nM. Moreover, the IC50 in test [2] was 1.85 nM.

`OC(CNCC(O)C1CCc2ccccc2O1)C1CCc2ccccc2O1` (stereo not drawn) [Compound 74, (A^+ A^+)-α,α'-[iminobis(methylene)]bis[3,4-dihydro-2H-1-benzopyran-2-methanol]]: in test [1], the “β2 /β1” value was 12,500 and the IC50 is 8120 nM. For the same molecule, the IC50 in test [2] is 0.65 nM.
